Test results published in patent publication US20260070899A1, “N-(2-(4-CYANOTHIAZOLIDIN-3-YL)-2-OXOETHYL)-QUINOLINE-4-CARBOXAMIDES” (AstraZeneca AB, priority 2022, published 2026).

How the values were obtained:
[1] = target: T1, FAP enzyme activity in mouse plasma (Mus musculus, UniProt P97321); experiment: FAP target engagement enzyme activity in mouse plasma (in vivo); conditions: male C57Bl/6 mice, single oral dose 3 or 10 mg/kg; exposure vs plasma FAP activity, Imax fixed to 1
T1 construct: tissue Charles River; host or cells: plasma of male C57Bl/6 mice after oral dosing
T1 sequence (P97321 24-761 limits assumed): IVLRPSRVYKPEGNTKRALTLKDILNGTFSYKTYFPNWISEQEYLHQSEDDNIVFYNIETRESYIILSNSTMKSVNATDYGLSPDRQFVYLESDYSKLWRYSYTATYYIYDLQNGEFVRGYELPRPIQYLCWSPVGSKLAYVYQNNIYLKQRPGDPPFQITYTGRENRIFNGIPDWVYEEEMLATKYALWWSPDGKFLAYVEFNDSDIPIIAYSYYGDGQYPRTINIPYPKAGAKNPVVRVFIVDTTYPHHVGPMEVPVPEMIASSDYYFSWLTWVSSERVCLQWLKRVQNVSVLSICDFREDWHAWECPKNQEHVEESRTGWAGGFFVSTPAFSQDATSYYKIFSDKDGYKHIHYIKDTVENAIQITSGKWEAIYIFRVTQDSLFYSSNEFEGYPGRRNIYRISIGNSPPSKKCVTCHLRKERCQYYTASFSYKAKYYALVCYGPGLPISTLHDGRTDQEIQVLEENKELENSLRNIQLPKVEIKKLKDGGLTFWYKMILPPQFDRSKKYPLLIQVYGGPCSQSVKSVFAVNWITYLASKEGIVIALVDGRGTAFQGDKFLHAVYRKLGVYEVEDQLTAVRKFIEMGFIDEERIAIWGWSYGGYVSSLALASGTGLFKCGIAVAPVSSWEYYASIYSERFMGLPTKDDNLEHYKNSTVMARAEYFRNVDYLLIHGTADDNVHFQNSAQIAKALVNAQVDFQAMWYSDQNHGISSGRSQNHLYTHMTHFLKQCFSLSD
Experimental: The effect of test compound on FAP enzyme activity in mouse plasma was evaluated in an enzymatic assay using the Fibroblast Activation Protein alpha (FAP) specific fluorogenic substrate dipeptide-Coumarin, Ala-Pro-AMC, (ARI-3144). In this assay, FAP cleaves Ala-Pro-AMC to release free AMC which is measured as a fluorescent signal that correlates with enzyme activity.
Male C57Bl/6 mice (Charles River, Germany), 8 weeks of age, were single housed in a temperature-controlled room with a 12-hour light/dark cycle (06:00-18:00 light). The mice had ad libitum access to water and rodent chow diet (R70, Lactamin, Kimstad, Sweden), and were acclimated for 5 days upon arrival. After acclimation, all mice received a single oral dose of test compound (3 or 10 mg/kg). Blood samples for whole blood compound exposure measurements were taken at 0.25, 0.5, 1, 2, 4, 8 and 24 h post oral dosing. Samples were collected in EDTA capillary tubes (20 μL, K2E, REF 19.447) and were transferred to a 96-deep well plate (NUNC, Thermo Discher Scientific) and stored at −20° C. until further analyses were performed. […]
Recombinant human FAP (PB-17-1837, construct PL-17-0278, cd33-FAP (27-757)-6His, Mw85926 Da) was used as a standard for this assay. […] The plates were read on a Beckman Paradigm reader with excitation 360 nm and emission 465 nm. Fluorescence measurements were performed with kinetic read every 5 minutes for 60 min at rt. Data were analyzed in Excel (IDBS XLfit Add-In) using a Linear Regression (y=k*x+m) model to prepare a human recombinant FAP standard curve.
On the day of the assay, plasma was diluted (1:2) to 20 μL volume in buffer (PBS, 0.1% BSA) and 7.5 μL was transferred to the assay plate (384-well black, fluotrack PS, Greiner 781076). […] The plates were read on a Beckman Paradigm reader with excitation 360 nm and emission 465 nm. Fluorescence measurements were performed with kinetic read every 5 minutes for 60 minutes at rt. As noted above, FAP cleaves Ala-Pro-AMC to release free AMC which is measured as a fluorescent signal. […]

Kinetic solubility = format: physicochemical; conditions: kinetic from dmso stock, n = 1 or average (n = 2-4)
Experimental: Kinetic solubility was measured as described in Comput Aided Mol Des 2015, 29, 795.

[2] = Metabolic stability in human liver microsomes (HLM); format: in vitro ADME; conditions: n = 1 or average (n = 2-3)
Experimental: Metabolic stability in HLM was measured as described in J Comput Aided Mol Des 2015, 29, 795.

IC50 [1]	solubility (Kinetic solubility)	microsomal CLint [2]	SMILES
2.6 nM	–	–	CO[C@H]1CC[C@H](c2ccc3nccc(C(=O)NCC(=O)N4CSC[C@H]4C#N)c3c2)CC1 (single isomer, unassigned) [Example 78, N-(2-((R)-4-Cyanothiazolidin-3-yl)-2-oxoethyl)-6-((1r,4R*)-4-methoxycyclohexyl)quinoline-4-carboxamide]
7.6 nM	–	–	CC(C)(F)COc1ccc2nccc(C(=O)NCC(=O)N3CSC[C@H]3C#N)c2c1 [Example 3, (R)—N-(2-(4-Cyanothiazolidin-3-yl)-2-oxoethyl)-6-(2-fluoro-2-methylpropoxy)quinoline-4-carboxamide]
–	> 1000 µM	69 µL/min/mg	COC(C)(C)c1ccc2nccc(C(=O)NCC(=O)N3CSC[C@H]3C#N)c2c1 [Example 18, (R)—N-(2-(4-Cyanothiazolidin-3-yl)-2-oxoethyl)-6-(2-methoxypropan-2-yl)quinoline-4-carboxamide]
8.8 nM	–	–	N#C[C@@H]1CSCN1C(=O)CNC(=O)c1ccnc2ccc(C3CCOCC3)cc12 [Example 20, (R)—N-(2-(4-Cyanothiazolidin-3-yl)-2-oxoethyl)-6-(tetrahydro-2H-pyran-4-yl)quinoline-4-carboxamide]
